Molecules are shown by their SMILES.

One assay relates to Antiglucocorticoid effectiveness. Kind of assay: Antiglucocorticoid effectiveness in % of RU 486. To be noted: RU 486 effectiveness = 100%. From the text: Antiglucocorticoid effectiveness of compounds A to G;
the effectiveness is indicated in % of th
`CC#C[C@@]1(O)CC[C@@H]2[C@@H]3CCC4=CC(=O)CCC4=C3[C@@H](c3ccc(C(C)=O)cc3)C[C@@]21C` [A, 11beta-(4-acetylphenyl)-17alpha-hydroxy-17-(prop-1-inyl)-14beta-estra-4,9-dien-3-one]: the “Antiglucocorticoid effectiveness (in % of RU 486)” value came to 1%.

`C#CC[C@@]1(O)CC[C@@H]2[C@@H]3CCC4=CC(=O)CCC4=C3[C@@H](c3ccc(C(C)=O)cc3)C[C@@]21C` [B, 11beta-(4-acetylphenyl)-17alpha-hydroxy-17-(prop-2-inyl)-14beta-estra-4,9-dien-3-one]: the “Antiglucocorticoid effectiveness (in % of RU 486)” value is 1%. On to `COc1ccc2c(c1)C[C@]13CCC(=O)C=C1CC[C@@H]1[C@@H]3[C@@H]2C[C@@]2(C)[C@@H]1CC[C@]2(O)CCCO` [C, 17-hydroxy-17beta-(3-hydroxypropyl)-11beta,19-(4-methoxy-o-phenylene)-14beta-androst-4-en-3-one], for which the “Antiglucocorticoid effectiveness (in % of RU 486)” value is on record as 0%. Consider `C[C@]12C[C@@H]3c4ccc(-c5cccnc5)cc4C[C@]45CCC(=O)C=C4CC[C@H]([C@H]35)[C@H]1CC[C@]2(O)CCCO` [D, 17-hydroxy-17beta-(3-hydroxypropyl)-11beta,19-(4-(3-pyridyl)-o-phenylene]-14beta-androst-4-en-3-one], for which the “Antiglucocorticoid effectiveness (in % of RU 486)” value amounted to 0%. For the molecule `C=Cc1ccc2c(c1)C[C@]13CCC(=O)C=C1CC[C@@H]1[C@@H]3[C@@H]2C[C@@]2(C)[C@@H]1CC[C@]2(O)CCCO` [E, 17-hydroxy-17beta-(3-hydroxypropyl)-11beta,19-(4-vinyl-o-phenylene)-14beta-androst-4-en-3-one], the “Antiglucocorticoid effectiveness (in % of RU 486)” value worked out at 1%. As for `CN(C)c1ccc([C@H]2C[C@@]3(C)[C@H](CC[C@]3(O)CCCO)[C@@H]3CCC4=CC(=O)CCC4=C32)cc1` [F, 11beta-(4-dimethylaminophenyl)-17alpha-hydroxy-17-(3-hydroxypropyl)-14beta-estra-4,9-dien-3-one, reference compound], the “Antiglucocorticoid effectiveness (in % of RU 486)” value is reported as 2%.

Another assay relates to mammary gland (tubulo-alveolar gland end pieces). Kind of assay: Antiproliferative potency of progesterone antagonists on the mammary gland, bioassay in ovariectomized rats (whole mount, inguinal mammary gland). In kind it is in vivo, rat. To be noted: 3 days, estrone 10 micrograms + progesterone 3 mg, antagonist 1 mg/animal/day, relative to G = 100%. The procedure:
The antiproliterative potency of progesterone antagonists on the mammary gland was determined in a bioassay. For this purpose, ovariectomized rats were substituted for 3 days with estrone (10 micrograms) and progesterone (3 mg) and another group at the same time was treated with the following progesterone antagonists (1 mg/animal/day):
The entire inguinal mammary gland was dissected by performance of the "whole mount" technique (Lyons and Johnson, 1952). Of six animals, the number of tubulo-alveolar gland end pieces is determined by 40 times magnification.
The antiproliterative potency is expressed in percent of the inhibition of the tubulo-alveolar end pieces corresponding to the following formula:
(estrone (E)+progesterone (P))-(E+P+G)=100% of treated animals
(E+P)-(test compound H or I)=X%
Turning to `CC#C[C@]1(O)CC[C@H]2[C@@H]3CCC4=CC(=O)CCC4=C3[C@@H](c3ccc(C(C)=O)cc3)C[C@@]21C` [G, 11beta-(4-acetylphenyl)-17beta-hydroxy-17alpha-(1-propinyl)-4,9-estradien-3-one], the “% inhibition of the tubulo-alveolar end pieces” value (“% inhibition” for short) amounted to 100%.

Regarding `C[C@]12C[C@H](c3ccc(-c4cccnc4)cc3)C3=C4CCC(=O)C=C4CC[C@H]3[C@H]1CC[C@]2(O)CCCO` [H, 11beta-[4-(3-pyridyl)phenyl]-17alpha-hydroxy-17-(3-hydroxypropyl)-14beta-estra-4,9-dien-3-one], the “% inhibition” value amounted to 92%. On to `CN(C)c1ccc([C@H]2C[C@@]3(C)[C@H](CC[C@]34CCCO4)[C@@H]3CCC4=CC(=O)CCC4=C32)cc1` [I, 11beta-(4-dimethylaminophenyl)-4,5-dihydro-spiro[14beta-estra-4,9-diene-17alpha,2'(3'H)-furan]-3-one], for which the “% inhibition” value is given as 13%.

For the origin of these results see patent publication US5244886A, “11β-phenyl-14βH steroids” (Schering Aktiengesellschaft, priority 1988, dated 1993).
